For orientation: Ki means a measure of affinity in units of concentration, obtained from inhibition or displacement. Usually Kd stands for the constant that tells how readily two partners part at equilibrium.

Consider 44 compounds from article PMC12723664, “A high-quality chromosome-level genome assembly of the oligophagous fruit fly Bactrocera tsuneonis (Diptera: Tephritidae) and insights into its host specificity” (GigaScience, 2025).

Assay [1] concerns the target BtsuOBP83a. Briefly: Fluorescence competitive binding assay (1-NPN probe), recombinant BtsuOBP83a. Also noted: species or system Bactrocera tsuneonis. The conditions noted are these: for Ki: relative dissociation constant calculated from IC50, competition with 1-NPN, ligand 4–32 μmol/L, pH 7.4, read-out: Ki (μM) OBP83a; for binding to BtsuOBP83a (in words): fluorescence competitive binding assay. The source says: (§1) Full-length sequences of BtsuOBP83a and BtsuOBP83b were amplified using specific primers (Supplementary Table S1). Purified PCR products were cloned into the pGEM-T vector (Promega) for sequencing verification. The confirmed target fragments were then subcloned into the pET-30a(+) expression vector (Sangon) using restriction enzymes (Supplementary Table S2) and T4 DNA ligase (Takara). Recombinant plasmids were transformed into Escherichia coli BL21 (DE3) competent cells (Tiangen). Bacterial cultures were grown to an OD600 of 0.6–0.8, after which protein expression was induced by adding isopropyl-β-D-thiogalactopyranoside (IPTG) (Solarbio) to a final concentration of 1 mM at different temperatures. Cells were harvested by centrifugation (5,000 × g, 15 minutes), lysed in phosphate-buffered saline buffer via sonication, and subjected to sodium dodecyl sulfate–polyacrylamide gel electrophoresis (SDS-PAGE) analysis after heat treatment. Large-scale protein expression was performed under optimized induction conditions. Soluble proteins in the supernatant were purified twice using Ni-affinity chromatography (GE Healthcare). His-tags were removed using enterokinase (Novoprotein). All purification steps were conducted at 4°C. The size and purity of OBP proteins were evaluated via SDS-PAGE, and protein concentrations were determined using the Bradford method.
(§2) The ligand-binding affinities of candidate OBPs were evaluated using fluorescence competitive binding assays performed on an F-380 Fluorescence Spectrophotometer (Tianfang), with modifications to the standard procedure. Purified OBP proteins were diluted to a final concentration of 2 μmol/L in 50 mmol/L Tris-HCl buffer (pH 7.4). The fluorescent probe N-phenyl-1-naphthylamine (1-NPN) and all candidate volatile ligands were dissolved in high-performance liquid chromatography–grade methanol at an initial concentration of 1 mmol/L. The binding constant between OBPs and 1-NPN was determined by recording emission spectra from 350 to 470 nm at an excitation wavelength of 337 nm. To establish binding saturation, titrations were conducted by sequentially adding 1-NPN to the protein solution, reaching final concentrations of 2–20 μmol/L in 2-μmol/L increments. Fluorescence intensity was measured after stabilization, and each measurement was performed in triplicate. […] Each experiment was conducted in triplicate. Dissociation constants (Ki) for the volatile ligands were calculated from the corresponding IC50 values using the following equation: […]

The target in assay [2] is BtsuOBP83b. The experiment in a line: Fluorescence competitive binding assay (1-NPN probe), recombinant BtsuOBP83b. Also on record: species or system Bactrocera tsuneonis. The conditions noted are these: for Ki: relative dissociation constant calculated from IC50, competition with 1-NPN, ligand 4–32 μmol/L, pH 7.4, read-out: Ki (μM) OBP83b.
Description: as §1, §2

Entries after “also recorded” stand apart in the source; their conditions may differ. Bounds are passed on as bounds.

`CC/C=C\CCO` [cis-3-Hexen-1-ol]: the Ki is 32.1 µM in assay [1] and 31.8 µM in assay [2].

Regarding `CC(C)c1ccccc1` [Cumene], the Ki in assay [1] and in assay [2] was over 50 µM each time.

Regarding `CCCCCCCCCCCCF` [1-Fluorododecane], the Ki in assay [1] and in assay [2] was over 50 µM throughout.

On to `CCOC(C)=O` [Ethylacetate], for which the Ki in assay [1] is over 50 µM; in assay [2] it was 33 µM.

`CC(=O)OCCC(C)C` [Isoamyl acetate]: the Ki in assay [1] was over 50 µM; in assay [2] it was 33.5 µM.

For `CCCCCCCCOC(C)=O` [Octyl acetate], the Ki in assay [1] and in assay [2] was over 50 µM in each case.

As to `C=C1CC/C=C(\C)CC[C@@H]2[C@@H]1CC2(C)C` [beta-Caryophyllene], the inhibition constant Ki in assay [1] and in assay [2] was over 50 µM each time.

For the compound `CC1=C[C@@H]2C(=C(C)CC[C@H]2C(C)C)CC1` [(+)-delta-Cadinene], the Ki in assay [1] and in assay [2] was over 50 µM in each case.

Turning to `CCCC(=O)OCCC(C)C` [Isoamyl butyrate], the Ki in assay [1] and in assay [2] was over 50 µM throughout.

Regarding `COc1cc(C)ccc1C(C)C` [2-Isopropyl-5-methylanisole], the Ki in assay [1] and in assay [2] was over 50 µM throughout.

Take `c1ccc(Nc2cccc3ccccc23)cc1` [1-NPN, N-phenyl-1-naphthylamine, reference compound]: the Kd in assay [1] (BtsuOBP83a 2 μmol/L, 50 mmol/L Tris-HCl pH 7.4, 1-NPN 2–20 μmol/L, Scatchard, read-out: dissociation constants (Kd) for 1-NPN) turned out to be 5.48 µM; in assay [2] (BtsuOBP83b 2 μmol/L, 50 mmol/L Tris-HCl pH 7.4, 1-NPN 2–20 μmol/L, Scatchard, read-out: dissociation constants (Kd) for 1-NPN), 6.92 µM.

Turning to `CC(=O)OC/C=C(/C)CCC=C(C)C` [Neryl acetate], the Ki in assay [1] and in assay [2] was over 50 µM each time.

Consider `C=C(C)[C@H]1CC=C(C)C(=O)C1` [d-Carvone], for which the Ki in assay [1] and in assay [2] was over 50 µM each time.

On to `CCCCCCCC(=O)OCCCC` [Butyl caprylate], for which the Ki in assay [1] and in assay [2] was over 50 µM throughout.

Turning to `CCCCCC(=O)OCCC` [Propyl Hexanoate], the Ki in assay [1] and in assay [2] was over 50 µM each time.

As for `CC1=CCCC(C)(C)C12CCC(C)O2` (stereo not drawn) [Theaspirane], the Ki in assay [1] and in assay [2] was over 50 µM each time.

Regarding `CCCCCCCCO` [1-Octanol], the Ki was 36.4 µM in assay [1] and 39.1 µM in assay [2].

Turning to `CC1=CC[C@@H](C(C)(C)O)CC1` [(L)-alpha-terpineol], the inhibition constant (Ki) in assay [1] and in assay [2] was over 50 µM each time.

Turning to `CCCCCCO` [1-Hexanol], the Ki in assay [1] is over 50 µM; in assay [2], 31.8 µM.

As for `CC1=CC(=O)C(C(C)C)CC1` (stereo not drawn) [Piperitone], in assay [1], the “binding to BtsuOBP83a (in words)” value is “selectively binds; also recorded: binds strongly; also recorded: strong binding affinity”. For the same compound, the Ki in assay [1] is 17.9 µM; in assay [2], over 50 µM.

As to `CCCCCC(=O)OCC` [Ethyl hexanoate], the Ki in assay [1] and in assay [2] was over 50 µM in each case.

Take `CCCCCC=O` [Hexanal]: the results for the inhibition constant (Ki) in assay [1] and in assay [2] were 40.7 µM and 33.7 µM, respectively.

For the compound `CC(C)=CCC/C(C)=C\CO` [Nerol], the Ki in assay [1] and in assay [2] was over 50 µM throughout.

As to `CC1=CCCC1` [1-Methylcyclopentene], the Ki in assay [1] and in assay [2] was over 50 µM each time.

With `CCCCC/C=C/C(=O)OCC` [Ethyl trans-2-octenoate], the Ki in assay [1] is 46.3 µM; in assay [2], over 50 µM.

As to `CCC/C=C/COC(=O)CC` [trans-2-Hexenyl propionate], the Ki in assay [1] and in assay [2] was over 50 µM throughout.

Regarding `Cc1ccc(C(C)C)cc1O` [Carvacrol], the Ki in assay [1] and in assay [2] was over 50 µM each time.

For `CCC/C=C/COC(=O)CCC` [trans-2-Hexenyl Butyrate], the Ki is over 50 µM in assay [1] and 28.5 µM in assay [2].

With `CC(C)CCO` [Isopentyl alcohol], the Ki in assay [1] is over 50 µM; in assay [2] it was 40.2 µM.

For `CCCCOC(=O)C(C)CC` (stereo not drawn) [Butyl 2-methylbutyrate], the Ki in assay [1] and in assay [2] was over 50 µM throughout.

On to `CCCCOC(=O)CCC` [Butyl butyrate], for which the Ki in assay [1] and in assay [2] was over 50 µM each time.

In the case of `CCCCOC(=O)CC` [Butyl propionate], the Ki in assay [1] and in assay [2] was over 50 µM each time.

For the compound `CCOC(=O)C(C)CC` (stereo not drawn) [Ethyl 2-methylbutyrate], the Ki in assay [1] and in assay [2] was over 50 µM each time.

`C#Cc1cccc(N)c1` [3-Ethynylaniline]: the Ki in assay [1] and in assay [2] was over 50 µM each time.

For the compound `CC/C=C\CCOC(=O)CC` [cis-3-Hexenyl propionate], the Ki in assay [1] and in assay [2] was over 50 µM in each case.

In the case of `C=C1CC/C=C(/C)CC[C@@H]2[C@@H]1CC2(C)C` [Isocaryophyllene], the Ki in assay [1] and in assay [2] was over 50 µM each time.

Turning to `C=CC(C)(O)CC/C=C(\C)CCC=C(C)C` (stereo not drawn) [trans-Nerolidol], in assay [1], the “binding to BtsuOBP83a (in words)” value was “selectively binds; also recorded: binds strongly; also recorded: strong binding affinity” and the Ki is 9.36 µM. The Ki in assay [2] is over 50 µM.

Regarding `C/C=C/C(=O)OCC` [Ethyl crotonate], the Ki in assay [1] and in assay [2] was over 50 µM in each case.

As for `CCc1ccccc1` [Ethylbenzene], the Ki in assay [1] and in assay [2] was over 50 µM each time.

As to `CCCCC(=O)OCC` [Ethyl valerate], the Ki in assay [1] and in assay [2] was over 50 µM each time.

For `CCCC=CC=O` [2-Hexenal], the Ki was 42.7 µM in assay [1] and 31.9 µM in assay [2].

With `C=Cc1ccccc1` [Styrene], the Ki in assay [1] and in assay [2] was over 50 µM throughout.

On to `CCc1ccco1` [2-Ethylfuran], for which the Ki in assay [1] and in assay [2] was over 50 µM throughout.

Consider `CC1=CCC2CC1C2(C)C` (stereo not drawn) [alpha-Pinene], for which the Ki in assay [1] was 49.2 µM; in assay [2], over 50 µM.
